Assay results from article PMC5750217 (Nature Communications, 2018).

Experiments:
GltPh-R397C = molecular target: T1, GltPh-R397C (Pyrococcus horikoshii, UniProt O59010, R397C); experiment: biochemical; conditions: for Transport of radiolabelled substrate into proteoliposomes (in words): 100 nM L-[3H]aspartate, 1 µM L-[3H]glutamine, 10 µM 35S-cysteine ± 1 mM DTT, Na+ gradient
T1 construct: hexa-His (N, cleaved yes); made in house; host or cells: Escherichia coli Top10 (pBAD)
Method: Mutant and wild-type GltPh with an amino-terminal hexa-His tag were expressed in Escherichia coli Top10 cells (Invitrogen), which were grown in Luria broth medium at 37 °C. Ampicillin was added to a final concentration of 100 μg per ml. To induce expression of GltPh, 0.1% L-arabinose was added when cells reached an optical density of 0.6 at 660 nm, and cells were harvested 4 h post induction. Membranes were isolated, and then solubilised with n-dodecyl-β-D-maltopyranoside (C12M, Anatrace). Histidine containing proteins were purified using Ni^2+−nitrilotriacetic acid resin (Qiagen). The histidine tag was subsequently removed from GltPh by digestion with thrombin (10 U per mg protein) and the protein further purified on a Superdex 200 size exclusion column, where the detergent was exchanged to n-decyl-β-D-maltopyranoside (C10M, Anatrace).
Pure protein was reconstituted into liposomes composed of 75% E. coli Polar Lipid Extract and 25% 1-palmitoyl-2-oleoyl-sn-glycero-3 ^−phopshocholine (Avanti Polar Lipids). Lipids were mixed, dried under nitrogen and resuspended in internal buffer (100 mM KCl, 20 mM HEPES-Tris pH 7.5) using brief sonication (Laboratory Supplies Co.). The lipid suspension was frozen in liquid nitrogen and thawed at room temperature several times. Liposomes were formed by extrusion through 400 nm polycarbonate membranes (Avanti Polar Lipids) and were treated with Triton X-100 at a 0.5:1 (w/w) detergent to lipid ratio prior to the addition of protein at 0.25 μg protein per mg lipid. The protein/lipid mixture was left at room temperature for 30 min before detergent was removed using SM2 Biobeads (BioRad). The mixture was then incubated with gentle agitation, with four consecutive batches of Biobeads (80 mg per ml). Proteoliposomes were concentrated by centrifugation at 150,000 g for 30 min, resuspended at 100 mg lipid per ml and either used immediately or flash-frozen in liquid nitrogen and stored at −80 °C.
Mutant and wild-type GltPh-mediated transport of radiolabelled substrate was assayed by diluting proteoliposomes (100 mg lipid per ml) 133-fold into uptake buffer (100 mM NaCl, 20 mM HEPES-Tris pH 7.5, 1 μM valinomycin, 100 nM–1 µM L-[^3H]substrate) pre-warmed to 30 °C. At each time point, a 200 µl aliquot was removed and diluted 10-fold into ice-cold quench buffer (100 mM LiCl, 20 mM HEPES-Tris pH 7.5), followed by immediate filtration over nitrocellulose filters (0.22 μm pore size, Millipore). The filters were washed with ice-cold quench buffer and assayed for radioactivity using a Trilux beta counter (PerkinElmer). To establish substrate concentration–response curves, extraliposomal L-[^3H]substrate was varied between 500 nM and 100 µM, maintaining NaCl concentrations at 300 mM. For inhibitor concentration–response curves, for wild-type GltPh 100 nM L-[^3H]aspartate, and for mutant GltPh 1 µM L-[^3H]serine, was co-applied with varying inhibitor concentrations. Background levels of uptake were measured by diluting proteoliposomes into internal buffer (100 mM KCl, 20 mM HEPES-Tris pH 7.5) containing 1 µM of valinomycin and the indicated concentrations of L-[^3H]substrate.
Supplementary Figure 6. GltPh‐R397C, ASCT1 and ASCT2 are functional cysteine transporters. (a) Purified GltPh‐R397C was reconstituted into liposomes and 10µM 35S‐cysteine transport was measured over 10 minutes alone or in the presence of 1 mM dithiothreitol (DTT). Background levels of uptake were measured by diluting proteoliposomes into internal buffer (100 mM KCl, 20 mM HEPES‐Tris pH 7.5) containing 1 µM of valinomycin and the 10µM 35S‐cysteine. […]
(c) Neutral amino acid exchange in GltPh‐R397C. Counterflow experiments in which Na+ and amino acid loaded liposomes were used to detect the transport of a range of unlabelled neutral amino acids by exchanging with external 3H‐serine. Counterflow assays were performed using liposomes containing 200mM NaCl, 20 mM HEPES/Tris pH 7.5, and 1 mM of unlabelled amino acid as indicated. […]

[1] = molecular target: T2, A1-T458S/T459C (mutant ASCT1) (Homo sapiens, UniProt P43007, T458S/T459C); experiment: Radiolabelled uptake in oocytes expressing A1-T458S/T459C; format: cell-based; conditions: 10 µM L-[3H]substrate, 10 min, room temperature
T2 construct: expressed in transfected cells; host or cells: Xenopus laevis oocytes (cRNA injection)
T2 sequence (P43007 1-532 T458S/T459C): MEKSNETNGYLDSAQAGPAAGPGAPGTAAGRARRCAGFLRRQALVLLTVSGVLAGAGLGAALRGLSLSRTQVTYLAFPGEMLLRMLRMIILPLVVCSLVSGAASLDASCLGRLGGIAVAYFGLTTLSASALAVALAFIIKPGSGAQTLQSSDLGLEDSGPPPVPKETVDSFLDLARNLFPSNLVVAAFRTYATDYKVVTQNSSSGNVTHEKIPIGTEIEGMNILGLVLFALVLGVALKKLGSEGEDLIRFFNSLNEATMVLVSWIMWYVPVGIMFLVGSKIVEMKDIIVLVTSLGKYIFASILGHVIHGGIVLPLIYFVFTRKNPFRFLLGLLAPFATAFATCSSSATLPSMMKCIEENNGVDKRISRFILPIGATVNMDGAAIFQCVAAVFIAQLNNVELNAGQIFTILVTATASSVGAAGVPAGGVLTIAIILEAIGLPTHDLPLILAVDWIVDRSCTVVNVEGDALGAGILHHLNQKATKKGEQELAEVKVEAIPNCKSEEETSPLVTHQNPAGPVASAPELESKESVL
Method: Uptake of L-[^3H]amino acids (PerkinElmer Life Sciences) was measured in oocytes expressing wild-type and mutant ASCT1, and uninjected oocytes. Five oocytes were incubated in Cl^−-containing buffer with 10 µM L-[^3H]amino acids at room temperature. After 10 min, uptake was terminated by three rapid washes in ice-cold Cl^−-containing buffer followed by lysis in 50 mM NaOH and 1% SDS. L-[^3H]amino acids were measured by scintillation counting using a Trilux beta counter (PerkinElmer Life Sciences).

T1 sequence (O59010 whole entry R397C): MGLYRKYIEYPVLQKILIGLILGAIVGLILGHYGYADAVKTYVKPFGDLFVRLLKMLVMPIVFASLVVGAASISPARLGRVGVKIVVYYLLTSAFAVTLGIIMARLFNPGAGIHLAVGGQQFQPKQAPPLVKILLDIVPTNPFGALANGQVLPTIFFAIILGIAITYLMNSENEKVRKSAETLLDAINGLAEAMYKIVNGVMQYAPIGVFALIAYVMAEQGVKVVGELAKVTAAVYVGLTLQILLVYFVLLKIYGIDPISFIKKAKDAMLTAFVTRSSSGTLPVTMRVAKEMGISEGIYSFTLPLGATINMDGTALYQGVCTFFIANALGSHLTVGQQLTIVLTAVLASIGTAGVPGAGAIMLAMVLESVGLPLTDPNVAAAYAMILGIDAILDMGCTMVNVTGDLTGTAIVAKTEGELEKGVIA

In the case of N[C@@H](CCC(=O)Nc1ccc([N+](=O)[O-])cc1)C(=O)O [GPNA, glutamyl-p-nitroanilide], the “IC50 for inhibition of L-[3H]serine transport” value (GltPh-R397C; GltPh-R397C, 1 µM L-[3H]serine) is reported as “poorly inhibited”.

In the case of NC(=O)CC[C@H](N)C(=O)O [L-glutamine], the “Transport of radiolabelled substrate into proteoliposomes (in words)” value (GltPh-R397C; GltPh-R397C, listed as L-Glutamine) is reported as “not a substrate”, the “Transport of radiolabelled substrate into proteoliposomes (in words)” value (GltPh-R397C; GltPh-R397C, listed as L-[^3H]glutamine) is reported as “not transported at levels above background” and the “Reduction of L-[3H]serine transport by unlabelled competitor” value (GltPh-R397C; GltPh-R397C, 10 µM L-[3H]serine, 100-fold excess unlabelled amino acid) is reported as “able to bind and inhibit”. The “Radiolabelled substrate uptake into oocytes (in words)” value [1] was “robust accumulation”.

N[C@@H](CO)C(=O)O [L-serine] was tested, and the EC50 (GltPh-R397C) was 4.5 ± 0.9 µM, the “Fold lower affinity for GltPh-R397C compared with L-aspartate for wild-type GltPh” value (GltPh-R397C; serine at GltPh-R397C vs L-aspartate at wild-type GltPh) was 100 fold and the “Radiolabelled substrate uptake into oocytes (in words)” value [1] was “robust accumulation”.
